From patent US6914045B2, “Glycopeptide antibiotics” (Wyeth Holdings Corporation, priority 2001, dated 2005)
≈ marks a conversion by molar mass, not a printed value.

Columns and labels:
Assay in all cases: in vitro antibacterial evaluation, MIC by broth dilution
Assay type in all cases: cell-based
[1] = test system: Enterococcus sp.; settings: broth dilution, 18 hours at 35° C.
In short: (§1)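 MIC, the lowest antibiotic concentration preventing growth, was read across 64-0.06 μg/mL with 5×10^5 CFU/mL inoculum. Method followed NCCLS M7-A2 broth dilution using Mueller-Hinton II; Gram-positive strains covered recent methicillin-, penicillin- and/or vancomycin-resistant clinical isolates.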

[2] = test system: Escherichia coli; settings: 18 hours at 35° C., strain ATCC 25922
In short: as §1

[3] = test system: Staphylococcus sp.
In short: as §1

[4] = test system: Streptococcus sp.; settings: broth dilution, 18 hours at 35° C.
In short: as §1

[5] = Enterococcus faecalis (ATCC 29212)
[6] = Enterococcus faecalis (GC 2242)
[7] = Enterococcus faecalis (GC 4552)
[8] = Enterococcus faecalis (GC 4553)
[9] = Enterococcus faecalis (GC 4554)
[10] = broth dilution, 18 hours at 35° C.
[11] = broth dilution, 18 hours at 35° C.; strain GC 4546
[12] = broth dilution, 18 hours at 35° C.; strain GC 4547
[13] = broth dilution, 18 hours at 35° C.; strain GC 4548
[14] = broth dilution, 18 hours at 35° C.; strain GC 4549
[15] = broth dilution, 18 hours at 35° C.; strain GC 4551
[16] = broth dilution, 18 hours at 35° C.; strain ID-3941
[17] = broth dilution, 18 hours at 35° C.; strain SMITH GC 4543
[18] = Streptococcus agalactiae (GC 4564)
[19] = Streptococcus pneumoniae (GC 4565)
[20] = Streptococcus pyogenes (ID-3187)

CC(c1ccccc1)C1NC(=O)CNC(=O)C(CO)NC(=O)C(C(O)C2CNC(=N)N2C2OC(CO)C(O)C(O)C2O)NC(=O)C(C(O)C2CNC(=N)N2)NC(=O)C(Cc2ccc(OC3OC(COC(=O)OCc4ccccc4)C(OC4OC(CO)C(O)C(O)C4O)C(O)C3O)cc2)NC1=O (stereo not drawn) [Example 101, Cyclo[glycyl-β-methylphenylalanyl-O-[4-O-hexopyranosyl-6-O-[(phenylmethoxy)carbonyl]-hexopyranosyl]tyrosyl-3-(2-iminoimidazolidin-4-yl)seryl-3-(3-hexopyranosyl-2-iminoimidazolidin-4-yl)serylseryl]]
MIC Enterococcus avium (GC 4558) ([1]; Enterococcus avium (GC 4558)): 32 µg/mL (≈ 22.4 µM) | MIC Enterococcus faecalis (ATCC 29212) [1, 5]: 32 µg/mL (≈ 22.4 µM) | MIC Enterococcus faecalis (GC 2242) [1, 6]: 16 µg/mL (≈ 11.2 µM) | MIC Enterococcus faecalis (GC 4552) [1, 7]: 64 µg/mL (≈ 44.8 µM) | MIC Enterococcus faecalis (GC 4553) [1, 8]: 32 µg/mL (≈ 22.4 µM) | MIC Enterococcus faecalis (GC 4554) [1, 9]: 64 µg/mL (≈ 44.8 µM) | MIC Enterococcus faecium (GC 2243) ([1]; Enterococcus faecium (GC 2243)): 32 µg/mL (≈ 22.4 µM) | MIC Enterococcus faecium (GC 4556) ([1]; Enterococcus faecium (GC 4556)): 32 µg/mL (≈ 22.4 µM) | MIC Enterococcus faecium (GC 4557) ([1]; Enterococcus faecium (GC 4557)): 2 µg/mL (≈ 1.4 µM) | MIC Enterococcus faecalis (ATCC 29212) ([1]; strain ATCC 29212): 32 µg/mL (≈ 22.4 µM) | MIC Enterococcus faecalis (GC 2242) ([1]; strain GC 2242): 16 µg/mL (≈ 11.2 µM) | MIC Enterococcus faecium (GC 2243) ([1]; strain GC 2243): 32 µg/mL (≈ 22.4 µM) | MIC Enterococcus faecalis (GC 4552) ([1]; strain GC 4552): 64 µg/mL (≈ 44.8 µM) | MIC Enterococcus faecalis (GC 4553) ([1]; strain GC 4553): 32 µg/mL (≈ 22.4 µM) | MIC Enterococcus faecalis (GC 4554) ([1]; strain GC 4554): 64 µg/mL (≈ 44.8 µM) | MIC Enterococcus faecium (GC 4556) ([1]; strain GC 4556): 32 µg/mL (≈ 22.4 µM) | MIC Enterococcus faecium (GC 4557) ([1]; strain GC 4557): 2 µg/mL (≈ 1.4 µM) | MIC Enterococcus avium (GC 4558) ([1]; strain GC 4558): 32 µg/mL (≈ 22.4 µM) | MIC Escherichia coli (ATCC 25922) [2]: >64 µg/mL | MIC Coagulase Negative Staphylococcus (GC 4547) [3, 10]: 2 µg/mL (≈ 1.4 µM) | MIC Coagulase Negative Staphylococcus (GC 4548) [3, 10]: 2 µg/mL (≈ 1.4 µM) | MIC Coagulase Negative Staphylococcus (GC 4549) [3, 10]: 1 µg/mL (≈ 0.7 µM) | MIC Coagulase Negative Staphylococcus (GC 4551) [3, 10]: 8 µg/mL (≈ 5.6 µM) | MIC Coagulase Negative Staphylococcus (ID-3941) [3, 10]: 1 µg/mL (≈ 0.7 µM) | MIC Staphylococcus aureus (ATCC 29213) [3, 10]: 4 µg/mL (≈ 2.8 µM) | MIC Staphylococcus aureus (GC 1131) [3, 10]: 4 µg/mL (≈ 2.8 µM) | MIC Staphylococcus aureus (GC 4541) [3, 10]: 4 µg/mL (≈ 2.8 µM) | MIC Staphylococcus aureus (GC 4542) [3, 10]: 8 µg/mL (≈ 5.6 µM) | MIC Staphylococcus aureus (GC 4544) [3, 10]: 8 µg/mL (≈ 5.6 µM) | MIC Staphylococcus aureus (GC 4545) [3, 10]: 4 µg/mL (≈ 2.8 µM) | MIC Staphylococcus aureus-SMITH (GC 4543) [3, 10]: 4 µg/mL (≈ 2.8 µM) | MIC Staphylococcus haemolyticus (GC 4546) [3, 10]: 4 µg/mL (≈ 2.8 µM) | MIC Staphylococcus haemolyticus (GC 4546) [3, 11]: 4 µg/mL (≈ 2.8 µM) | MIC Coagulase Negative Staphylococcus (GC 4547) [3, 12]: 2 µg/mL (≈ 1.4 µM) | MIC Coagulase Negative Staphylococcus (GC 4548) [3, 13]: 2 µg/mL (≈ 1.4 µM) | MIC Coagulase Negative Staphylococcus (GC 4549) [3, 14]: 1 µg/mL (≈ 0.7 µM) | MIC Coagulase Negative Staphylococcus (GC 4551) [3, 15]: 8 µg/mL (≈ 5.6 µM) | MIC Coagulase Negative Staphylococcus (ID-3941) [3, 16]: 1 µg/mL (≈ 0.7 µM) | MIC Staphylococcus aureus-SMITH (GC 4543) [3, 17]: 4 µg/mL (≈ 2.8 µM) | MIC Staphylococcus aureus (ATCC 29213) ([3]; strain ATCC 29213; broth dilution, 18 hours at 35° C.): 4 µg/mL (≈ 2.8 µM) | MIC Staphylococcus aureus (GC 1131) ([3]; strain GC 1131; broth dilution, 18 hours at 35° C.): 4 µg/mL (≈ 2.8 µM) | MIC Staphylococcus aureus (GC 4541) ([3]; strain GC 4541; broth dilution, 18 hours at 35° C.): 4 µg/mL (≈ 2.8 µM) | MIC Staphylococcus aureus (GC 4542) ([3]; strain GC 4542; broth dilution, 18 hours at 35° C.): 8 µg/mL (≈ 5.6 µM) | MIC Staphylococcus aureus (GC 4544) ([3]; strain GC 4544; broth dilution, 18 hours at 35° C.): 8 µg/mL (≈ 5.6 µM) | MIC Staphylococcus aureus (GC 4545) ([3]; strain GC 4545; broth dilution, 18 hours at 35° C.): 4 µg/mL (≈ 2.8 µM) | MIC Streptococcus agalactiae (GC 4564) [4, 18]: 2 µg/mL (≈ 1.4 µM) | MIC Streptococcus pneumoniae (GC 4565) [4, 19]: <0.5 µg/mL | MIC Streptococcus pyogenes (ID-3187) [4, 20]: 2 µg/mL (≈ 1.4 µM) | MIC Streptococcus agalactiae (GC 4564) ([4]; strain GC 4564): 2 µg/mL (≈ 1.4 µM) | MIC Streptococcus pneumoniae (GC 4565) ([4]; strain GC 4565): <0.5 µg/mL | MIC Streptococcus pyogenes (ID-3187) ([4]; strain ID-3187): 2 µg/mL (≈ 1.4 µM)

CCCCCC1OCC2OC(OC3C(CO)OC(Oc4ccc(CC5NC(=O)C(C(C)c6ccccc6)NC(=O)CNC(=O)C(CO)NC(=O)C(C(O)C6CNC(=N)N6C6OC(CO)C(O)C(O)C6O)NC(=O)C(C(O)C6CNC(=N)N6)NC5=O)cc4)C(O)C3O)C(O)C(O)C2O1 (stereo not drawn) [Example 108, Cyclo[glycyl-β-methylphenylalanyl-O-[4-O-(4,6-O-hexylidenehexopyranosyl)hexopyranosyl]-tyrosyl-3-(2-iminoimidazolidin-4-yl)seryl-3-(3-hexopyranosyl-2-iminoimidazolidin-4-yl)-serylseryl]]
MIC Enterococcus avium (GC 4558) ([1]; Enterococcus avium (GC 4558)): 2 µg/mL (≈ 1.45 µM) | MIC Enterococcus faecalis (ATCC 29212) [1, 5]: 2 µg/mL (≈ 1.45 µM) | MIC Enterococcus faecalis (GC 2242) [1, 6]: 2 µg/mL (≈ 1.45 µM) | MIC Enterococcus faecalis (GC 4552) [1, 7]: 2 µg/mL (≈ 1.45 µM) | MIC Enterococcus faecalis (GC 4553) [1, 8]: 2 µg/mL (≈ 1.45 µM) | MIC Enterococcus faecalis (GC 4554) [1, 9]: 2 µg/mL (≈ 1.45 µM) | MIC Enterococcus faecium (GC 2243) ([1]; Enterococcus faecium (GC 2243)): 2 µg/mL (≈ 1.45 µM) | MIC Enterococcus faecium (GC 4556) ([1]; Enterococcus faecium (GC 4556)): 2 µg/mL (≈ 1.45 µM) | MIC Enterococcus faecium (GC 4557) ([1]; Enterococcus faecium (GC 4557)): 1 µg/mL (≈ 0.726 µM) | MIC Enterococcus faecalis (ATCC 29212) ([1]; strain ATCC 29212): 2 µg/mL (≈ 1.45 µM) | MIC Enterococcus faecalis (GC 2242) ([1]; strain GC 2242): 2 µg/mL (≈ 1.45 µM) | MIC Enterococcus faecium (GC 2243) ([1]; strain GC 2243): 2 µg/mL (≈ 1.45 µM) | MIC Enterococcus faecalis (GC 4552) ([1]; strain GC 4552): 2 µg/mL (≈ 1.45 µM) | MIC Enterococcus faecalis (GC 4553) ([1]; strain GC 4553): 2 µg/mL (≈ 1.45 µM) | MIC Enterococcus faecalis (GC 4554) ([1]; strain GC 4554): 2 µg/mL (≈ 1.45 µM) | MIC Enterococcus faecium (GC 4556) ([1]; strain GC 4556): 2 µg/mL (≈ 1.45 µM) | MIC Enterococcus faecium (GC 4557) ([1]; strain GC 4557): 1 µg/mL (≈ 0.726 µM) | MIC Enterococcus avium (GC 4558) ([1]; strain GC 4558): 2 µg/mL (≈ 1.45 µM) | MIC Escherichia coli (ATCC 25922) [2]: 32 µg/mL (≈ 23.2 µM) | MIC Coagulase Negative Staphylococcus (GC 4547) [3, 10]: 1 µg/mL (≈ 0.726 µM) | MIC Coagulase Negative Staphylococcus (GC 4548) [3, 10]: <0.5 µg/mL | MIC Coagulase Negative Staphylococcus (GC 4549) [3, 10]: 1 µg/mL (≈ 0.726 µM) | MIC Coagulase Negative Staphylococcus (GC 4551) [3, 10]: 1 µg/mL (≈ 0.726 µM) | MIC Coagulase Negative Staphylococcus (ID-3941) [3, 10]: 1 µg/mL (≈ 0.726 µM) | MIC Staphylococcus aureus (ATCC 29213) [3, 10]: 1 µg/mL (≈ 0.726 µM) | MIC Staphylococcus aureus (GC 1131) [3, 10]: 1 µg/mL (≈ 0.726 µM) | MIC Staphylococcus aureus (GC 4541) [3, 10]: 1 µg/mL (≈ 0.726 µM) | MIC Staphylococcus aureus (GC 4542) [3, 10]: 1 µg/mL (≈ 0.726 µM) | MIC Staphylococcus aureus (GC 4544) [3, 10]: 1 µg/mL (≈ 0.726 µM) | MIC Staphylococcus aureus (GC 4545) [3, 10]: 1 µg/mL (≈ 0.726 µM) | MIC Staphylococcus aureus-SMITH (GC 4543) [3, 10]: 1 µg/mL (≈ 0.726 µM) | MIC Staphylococcus haemolyticus (GC 4546) [3, 10]: 1 µg/mL (≈ 0.726 µM) | MIC Staphylococcus aureus (GC 1131) ([3]; broth dilution, 18 hours at 35° C., inoculum 5×10^5 CFU/mL; strain GC 1131): 1 µg/mL (≈ 0.726 µM) | MIC Staphylococcus aureus (ATCC 29213) ([3]; broth dilution, 18 hours at 35° C.; strain ATCC 29213): 1 µg/mL (≈ 0.726 µM) | MIC Staphylococcus aureus (GC 4541) ([3]; broth dilution, 18 hours at 35° C.; strain GC 4541): 1 µg/mL (≈ 0.726 µM) | MIC Staphylococcus aureus (GC 4542) ([3]; broth dilution, 18 hours at 35° C.; strain GC 4542): 1 µg/mL (≈ 0.726 µM) | MIC Staphylococcus aureus (GC 4544) ([3]; broth dilution, 18 hours at 35° C.; strain GC 4544): 1 µg/mL (≈ 0.726 µM) | MIC Staphylococcus aureus (GC 4545) ([3]; broth dilution, 18 hours at 35° C.; strain GC 4545): 1 µg/mL (≈ 0.726 µM) | MIC Staphylococcus haemolyticus (GC 4546) [3, 11]: 1 µg/mL (≈ 0.726 µM) | MIC Coagulase Negative Staphylococcus (GC 4547) [3, 12]: 1 µg/mL (≈ 0.726 µM) | MIC Coagulase Negative Staphylococcus (GC 4548) [3, 13]: <0.5 µg/mL | MIC Coagulase Negative Staphylococcus (GC 4549) [3, 14]: 1 µg/mL (≈ 0.726 µM) | MIC Coagulase Negative Staphylococcus (GC 4551) [3, 15]: 1 µg/mL (≈ 0.726 µM) | MIC Coagulase Negative Staphylococcus (ID-3941) [3, 16]: 1 µg/mL (≈ 0.726 µM) | MIC Staphylococcus aureus-SMITH (GC 4543) [3, 17]: 1 µg/mL (≈ 0.726 µM) | MIC Streptococcus agalactiae (GC 4564) [4, 18]: <0.5 µg/mL | MIC Streptococcus pneumoniae (GC 4565) [4, 19]: <0.5 µg/mL | MIC Streptococcus pyogenes (ID-3187) [4, 20]: <0.5 µg/mL | MIC Streptococcus agalactiae (GC 4564) ([4]; strain GC 4564): <0.5 µg/mL | MIC Streptococcus pneumoniae (GC 4565) ([4]; strain GC 4565): <0.5 µg/mL | MIC Streptococcus pyogenes (ID-3187) ([4]; strain ID-3187): <0.5 µg/mL
